Measurements taken from publication PMC11904993, “Humanized Candida and NanoBiT Assays Expedite Discovery of Bdf1 Bromodomain Inhibitors With Antifungal Potential” (Advanced Science, 2025).
“And” between values parts separate entries of the source, which are not always exact repeats. Equal values may be shown once. Read-outs that look alike come from different tables or passages of the source.

Columns and labels:
CgBdf1 BD1 = CgBdf1 BD1 (Candida glabrata, UniProt Q6FWV7); assay: HTRF assay, inhibition of H4ac4 peptide binding; parameters: species or system C. glabrata; conditions: for %HTRF Signal Cg Bdf1 BD1: 240 min
CgBdf1 BD2 = CgBdf1 BD2 (Candida glabrata, UniProt Q6FWV7); assay: biochemical; assay type: binding, C. glabrata
human Brd4 BD1 = human Brd4 BD1 (Homo sapiens, UniProt O60885); assay: HTRF assay, inhibition of H4ac4 peptide binding; conditions: for %HTRF Signal hBrd4 BD1: Fig 2E

CgBdf1 BD2, sequence (Q6FWV7 entry or part of it): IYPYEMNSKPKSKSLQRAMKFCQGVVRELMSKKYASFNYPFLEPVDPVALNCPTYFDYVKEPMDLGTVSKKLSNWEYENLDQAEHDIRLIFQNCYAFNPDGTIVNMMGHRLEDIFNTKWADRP
CgBdf1 BD1, sequence (Q6FWV7 entry or part of it): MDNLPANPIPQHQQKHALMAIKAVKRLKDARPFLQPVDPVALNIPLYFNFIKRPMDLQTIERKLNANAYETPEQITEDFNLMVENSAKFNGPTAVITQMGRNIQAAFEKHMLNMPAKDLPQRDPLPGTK

With `Cc1ccc(-c2nnc(C)c(NCc3ccc(C)o3)n2)cc1` [Compound 24c, 6‐methyl‐N‐((5‐methylfuran‐2‐yl)methyl)‐3‐(p‐tolyl)‐1,2,4‐triazin‐5‐amine] the activity at 0.002 µM (CgBdf1 BD1; 4 h, Fig 2E, 0.002 microM, read-out: %HTRF Signal Cg Bdf1 BD1) was 102%, the activity at 0.005 µM (CgBdf1 BD1; 4 h, Fig 2E, 0.005 microM, read-out: %HTRF Signal Cg Bdf1 BD1) was 97.9% and the activity at 0.013 µM (CgBdf1 BD1; 4 h, Fig 2E, 0.013 microM, read-out: %HTRF Signal Cg Bdf1 BD1) was 101%. The activity at 0.033 µM (CgBdf1 BD1; 4 h, Fig 2E, 0.033 microM, read-out: %HTRF Signal Cg Bdf1 BD1) was 96.4%, the activity at 0.082 µM (CgBdf1 BD1; 4 h, Fig 2E, 0.082 microM, read-out: %HTRF Signal Cg Bdf1 BD1) was 98% and the activity at 0.205 µM (CgBdf1 BD1; 4 h, Fig 2E, 0.205 microM, read-out: %HTRF Signal Cg Bdf1 BD1) was 97.5%. The activity at 0.512 µM (CgBdf1 BD1; 4 h, Fig 2E, 0.512 microM, read-out: %HTRF Signal Cg Bdf1 BD1) was 94.4%, the activity at 1.28 µM (CgBdf1 BD1; 4 h, Fig 2E, 1.280 microM, read-out: %HTRF Signal Cg Bdf1 BD1) was 88.7% and the activity at 3.2 µM (CgBdf1 BD1; 4 h, Fig 2E, 3.200 microM, read-out: %HTRF Signal Cg Bdf1 BD1) was 75%. For the same molecule, the activity at 8 µM (CgBdf1 BD1; 4 h, Fig 2E, 8.000 microM, read-out: %HTRF Signal Cg Bdf1 BD1) was 48.9%, the activity at 20 µM (CgBdf1 BD1; 4 h, Fig 2E, 20.000 microM, read-out: %HTRF Signal Cg Bdf1 BD1) was 25.2% and the IC50 (CgBdf1 BD1; Fig 2C original data, analogs of 24, single experiments Exp1-3, read-out: pIC50 CgBD1 (converted)) was 8.28 µM and 7.31 µM and 9.27 µM. The “%HTRF Signal Cg Bdf1 BD1” value (CgBdf1 BD1; Fig 2E, 0.002 microM) was 102.33% and 103.65%, the “%HTRF Signal Cg Bdf1 BD1” value (CgBdf1 BD1; Fig 2E, 0.005 microM) was 104.91% and 102.28% and the “%HTRF Signal Cg Bdf1 BD1” value (CgBdf1 BD1; Fig 2E, 0.013 microM) was 100.44% and 101.24%. The “%HTRF Signal Cg Bdf1 BD1” value (CgBdf1 BD1; Fig 2E, 0.033 microM) was 102.26% and 102.17%, the “%HTRF Signal Cg Bdf1 BD1” value (CgBdf1 BD1; Fig 2E, 0.082 microM) was 100.01% and 99.64% and the “%HTRF Signal Cg Bdf1 BD1” value (CgBdf1 BD1; Fig 2E, 0.205 microM) was 100.01% and 98.57%. For the same molecule, the “%HTRF Signal Cg Bdf1 BD1” value (CgBdf1 BD1; Fig 2E, 0.512 microM) was 94.98% and 94.31%, the “%HTRF Signal Cg Bdf1 BD1” value (CgBdf1 BD1; Fig 2E, 1.280 microM, 1.28 µM) was 89.76% and 89.41% and the “%HTRF Signal Cg Bdf1 BD1” value (CgBdf1 BD1; Fig 2E, 3.200 microM, 3.2 µM) was 77.27% and 82.10%. For the same molecule, the “%HTRF Signal Cg Bdf1 BD1” value (CgBdf1 BD1; Fig 2E, 8.000 microM) was 45.31% and 53.86%, the “%HTRF Signal Cg Bdf1 BD1” value (CgBdf1 BD1; Fig 2E, 20.000 microM) was 17.43% and 18.98% and the IC50 (CgBdf1 BD1; Fig 2E, mean and s.d., three independent experiments, read-out: IC50 (μM) CgBD1) was 8.28 µM and 8 µM. The “fold drop in CgBD1 inhibition” value (CgBdf1 BD1; relative to 24, thiophenyl replaced by furyl or methylfuryl) was 4 fold, the activity at 0.002 µM (CgBdf1 BD2; 24 h, Fig 2E, 0.002 microM, read-out: %HTRF Signal CgBdf1 BD2) was 108% and the activity at 0.005 µM (CgBdf1 BD2; 24 h, Fig 2E, 0.005 microM, read-out: %HTRF Signal CgBdf1 BD2) was 102%. The activity at 0.013 µM (CgBdf1 BD2; 24 h, Fig 2E, 0.013 microM, read-out: %HTRF Signal CgBdf1 BD2) was 118%, the activity at 0.033 µM (CgBdf1 BD2; 24 h, Fig 2E, 0.033 microM, read-out: %HTRF Signal CgBdf1 BD2) was 109% and the activity at 0.082 µM (CgBdf1 BD2; 24 h, Fig 2E, 0.082 microM, read-out: %HTRF Signal CgBdf1 BD2) was 99.8%. It also gave an activity at 0.205 µM (CgBdf1 BD2; 24 h, Fig 2E, 0.205 microM, read-out: %HTRF Signal CgBdf1 BD2) of 104%, an activity at 0.512 µM (CgBdf1 BD2; 24 h, Fig 2E, 0.512 microM, read-out: %HTRF Signal CgBdf1 BD2) of 101% and an activity at 1.28 µM (CgBdf1 BD2; 24 h, Fig 2E, 1.280 microM, read-out: %HTRF Signal CgBdf1 BD2) of 93.8%. The activity at 3.2 µM (CgBdf1 BD2; 24 h, Fig 2E, 3.200 microM, read-out: %HTRF Signal CgBdf1 BD2) was 83.5%, the activity at 8 µM (CgBdf1 BD2; 24 h, Fig 2E, 8.000 microM, read-out: %HTRF Signal CgBdf1 BD2) was 60.2% and the IC50 (CgBdf1 BD2; Fig 2C original data, analogs of 24, single experiments Exp1-3, read-out: pIC50 CgBD2 (converted)) was 13.9 µM and 12 µM and 9.53 µM. For the same molecule, the IC50 (CgBdf1 BD2; Fig 2E, mean and s.d., three independent experiments, read-out: IC50 (μM) CgBD2) was 11.8 µM and 12 µM, the IC50 (human Brd4 BD1) was over 20 µM and the “%HTRF Signal hBrd4 BD1” value (human Brd4 BD1; 0.002 microM) was 99.94% and 101.82% and 96.40%. For the same molecule, the “%HTRF Signal hBrd4 BD1” value (human Brd4 BD1; 0.005 microM) was 98.75% and 96.86% and 103.69%, the “%HTRF Signal hBrd4 BD1” value (human Brd4 BD1; 0.013 microM) was 99.02% and 101.98% and 101.10% and the “%HTRF Signal hBrd4 BD1” value (human Brd4 BD1; 0.033 microM) was 102.19% and 101.25% and 104.58%. The “%HTRF Signal hBrd4 BD1” value (human Brd4 BD1; 0.082 microM) was 100.31% and 103.86% and 103.22%, the “%HTRF Signal hBrd4 BD1” value (human Brd4 BD1; 0.205 microM) was 99.94% and 102.50% and 103.66% and the “%HTRF Signal hBrd4 BD1” value (human Brd4 BD1; 0.512 microM) was 100.22% and 100.80% and 103.20%. For the same molecule, the “%HTRF Signal hBrd4 BD1” value (human Brd4 BD1; 1.280 microM) was 99.57% and 100.99% and 103.81% and the “%HTRF Signal hBrd4 BD1” value (human Brd4 BD1; 3.200 microM) was 98.88% and 63.27% and 99.81%.
